Measurements reported in US7495027B2, “3-aryl-4-hydroxyfuranone compounds and the human and animal health use thereof” (Wyeth, priority 2003, dated 2009).

Legend:
[1] = test system: Trichostrongylus columbriformis; test: In vivo efficacy against T. colubriformis in infected gerbils; conditions: gerbils infected with T. colubriformis; single oral dose of 50 mg/kg by gavage; worm counts four days post-treatment; % mortality as compared to negative control
Procedure: In Vivo Evaluation of the Efficacy of Test Compounds Against T. colubriformis
In this evaluation, gerbils are infected with Trichostrongylus columbriformis infective larvae at a concentration of approximately 800 L3/mL. Larvae for gerbil infections are cultured from feces from sheep previously infected with T. colubriformis. One week post infection, test compounds are administered by gavage as a single oral dose of 50 mg/kg of body weight. For each group of 3 gerbils, 10 mg of test compound are dissolved in 2 mL of PEG 400:DMSO (1:2 v/v) and each animal is administered the test solution at a rate of 0.1 mL/10 g of body weight. […] All animals are observed daily for morbidity and mortality. Four days post-treatment, all animals are weighed and necropsied. Worm counts are conducted with the use of stereoscopes and counters.

C. elegans = test: Efficacy against nematodes (C. elegans motility rating); design: key: 0: no effect; 7: reduced movement in 24 h; 8: dead in 24 h; 9: dead in 4 h; conditions: observations at 4 h and 24 h postimmersion
Method in brief: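 Mixed-stage C. elegans (~50 per well, L1 to adult) in M9 buffer exposed to test compound at 100 ppm, 150 ppm or 200 μM final. Motility of larvae and adults scored under dissecting microscope at 4 h and 24 h.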

Structure (SMILES)	Mortality [1] [%]	Rating (C. elegans; dose 150 ppm)	Rating (C. elegans; dose 100 ppm)
Cc1ccccc1C1=C(O)C(=Cc2ccc(-c3ccccc3C)cc2)OC1=O	21.30	8	–
Cc1ccccc1-c1ccc(C=C2OC(=O)C(c3cccc(Cl)c3)=C2O)cc1C	10.80	9	–
O=C1O/C(=C\c2ccc(-c3ccc(Cl)c(Cl)c3)cc2)C(O)=C1c1ccc(Cl)c(Cl)c1	22.00	9	–
C=CCOC1=C(c2ccc(Cl)cc2)C(=O)OC1=Cc1ccc(C#N)cc1 (mixture of isomers)	0.00	–	0
N#Cc1ccc(-c2ccc(C=C3OC(=O)C(c4cccc(C(F)(F)F)c4)=C3O)cc2)cc1 (mixture of isomers)	47.50	–	9
O=C1OC(=Cc2ccc(-c3ccc(Cl)cc3)cc2)C(O)=C1c1cccc(C(F)(F)F)c1 (mixture of isomers)	31.30	–	9
N#Cc1cccc(C2=C(O)C(=Cc3ccc(-c4ccc(Cl)cc4)cc3)OC2=O)c1 (mixture of isomers)	0.00	–	9
N#Cc1ccc(-c2ccc(C=C3OC(=O)C(c4cccc(Cl)c4)=C3O)cc2)cc1 (mixture of isomers)	32.00	–	9
O=C1OC(=Cc2ccc(-c3ccc(Cl)cc3)cc2)C(O)=C1c1cccc(Cl)c1 (mixture of isomers)	37.60	–	9
N#Cc1ccc(-c2ccc(C=C3OC(=O)C(c4ccc(C(F)(F)F)cc4)=C3O)cc2)cc1 (mixture of isomers)	91.50	–	9
N#Cc1ccc(C2=C(O)C(=Cc3ccc4c(c3)OC(F)(F)O4)OC2=O)cc1 (mixture of isomers)	88.10	–	9
N#Cc1ccc(C2=C(O)C(=Cc3ccc(Cl)s3)OC2=O)cc1 (mixture of isomers)	20.60	–	9
O=C1OC(=Cc2ccc(-c3ccc(C(F)(F)F)cc3)cc2)C(O)=C1c1ccc(Cl)cc1 (mixture of isomers)	0.00	–	9
N#Cc1ccc(-c2ccc(C=C3OC(=O)C(c4ccc(F)cc4)=C3O)cc2)cc1 (mixture of isomers)	31.80	–	9
O=C1OC(=Cc2ccc(-c3ccc(Cl)cc3)cc2)C(O)=C1c1ccc(F)cc1 (mixture of isomers)	1.60	–	9
O=C1OC(=Cc2ncccc2Br)C(O)=C1c1ccc(OC(F)(F)F)cc1 (mixture of isomers)	26.90	–	0
O=C1OC(=Cc2cnccc2Br)C(O)=C1c1ccc(OC(F)(F)F)cc1 (mixture of isomers)	12.80	–	9
O=C1OC(=Cc2cnccc2-c2ccc(F)cc2)C(O)=C1c1ccc(OC(F)(F)F)cc1 (mixture of isomers)	12.80	–	9
O=C1OC(=Cc2cnccc2-c2cccs2)C(O)=C1c1ccc(OC(F)(F)F)cc1 (mixture of isomers)	12.80	–	9
O=C1OC(=Cc2ccc(Cl)s2)C(O)=C1c1ccc(OC(F)(F)F)cc1 (mixture of isomers)	26.10	–	9
N#Cc1ccc(C=C2OC(=O)C(c3ccc(-c4ccc(C#N)cc4)cc3)=C2O)cc1 (mixture of isomers)	29.80	–	9
N#Cc1ccc(-c2ccc(C3=C(O)C(=Cc4ccc(Cl)cc4)OC3=O)cc2)cc1 (mixture of isomers)	13.10	–	9
O=C1OC(=Cc2ccc(C(F)(F)F)cc2)C(O)=C1c1ccc(-c2ccc(Cl)cc2)cc1 (mixture of isomers)	21.30	–	9
N#Cc1ccc(C=C2OC(=O)C(c3ccc(-c4ccc(Cl)cc4)cc3)=C2O)cc1 (mixture of isomers)	0.00	–	9
O=C1OC(=Cc2ccc(Cl)cc2)C(O)=C1c1ccc(-c2ccc(Cl)cc2)cc1 (mixture of isomers)	0.00	–	9

Structure (SMILES)	Mortality [1] [%]	Rating (C. elegans; dose 150 ppm)	Rating (C. elegans; dose 100 ppm)
COC1=C(c2ccc(Cl)cc2)C(=O)OC1=Cc1ccc(C#N)cc1 (mixture of isomers) [R=CH3; R1=4-Cl—C6H4**; R2=4-CN—C6H4]	0.00	–	0
O=C1OC(=Cc2ccc(C(F)(F)F)cc2)C(O)=C1c1cccc(C(F)(F)F)c1 (mixture of isomers) [R=H; R1=3-CF3—C6H4**; R2=4-CF3—C6H4]	0.00	–	9
N#Cc1ccc(C=C2OC(=O)C(c3cccc(C(F)(F)F)c3)=C2O)cc1 (mixture of isomers) [R=H; R1=3-CF3—C6H4**; R2=4-CN—C6H4]	0.00	–	9
O=C1OC(=Cc2ccc(F)cc2)C(O)=C1c1cccc(C(F)(F)F)c1 (mixture of isomers) [R=H; R1=3-CF3—C6H4**; R2=4-F—C6H4]	36.40	–	9
N#Cc1cccc(C2=C(O)C(=Cc3ccc(C(F)(F)F)cc3)OC2=O)c1 (mixture of isomers) [R=H; R1=3-CN—C6H4**; R2=4-CF3—C6H4]	0.00	–	9
N#Cc1ccc(C=C2OC(=O)C(c3cccc(C#N)c3)=C2O)cc1 (mixture of isomers) [R=H; R1=3-CN—C6H4**; R2=4-CN—C6H4]	25.50	–	9
N#Cc1cccc(C2=C(O)C(=Cc3ccc(Cl)cc3)OC2=O)c1 (mixture of isomers) [R=H; R1=3-CN—C6H4**; R2=4-Cl—C6H4]	0.00	–	9
N#Cc1cccc(C2=C(O)C(=Cc3ccc(F)cc3)OC2=O)c1 (mixture of isomers) [R=H; R1=3-CN—C6H4**; R2=4-F—C6H4]	0.00	–	7
O=C1OC(=Cc2ccc(C(F)(F)F)cc2)C(O)=C1c1cccc(Cl)c1 (mixture of isomers) [R=H; R1=3-Cl—C6H4**; R2=4-CF3—C6H4]	57.90	–	9
N#Cc1ccc(C=C2OC(=O)C(c3cccc(Cl)c3)=C2O)cc1 (mixture of isomers) [R=H; R1=3-Cl—C6H4**; R2=4-CN—C6H4]	43.70	–	9
O=C1OC(=Cc2ccc(Cl)cc2)C(O)=C1c1cccc(Cl)c1 (mixture of isomers) [R=H; R1=3-Cl—C6H4**; R2=4-Cl—C6H4]	18.80	–	9
O=C1OC(=Cc2ccc(F)cc2)C(O)=C1c1cccc(Cl)c1 (mixture of isomers) [R=H; R1=3-Cl—C6H4**; R2=4-F—C6H4]	3.00	–	9
N#Cc1ccc(C2=C(O)C(=Cc3cccc(C(F)(F)F)c3)OC2=O)cc1 (mixture of isomers) [R=H; R1=4-CN—C6H4**; R2=3-CF3—C6H4]	50.00	–	9
N#Cc1ccc(C2=C(O)C(=Cc3ccc(F)cc3)OC2=O)cc1 (mixture of isomers) [R=H; R1=4-CN—C6H4**; R2=4-F—C6H4]	82.10	–	9
N#Cc1ccc(C2=C(O)C(=Cc3ccc(OC(F)(F)C(F)F)cc3)OC2=O)cc1 (mixture of isomers) [R=H; R1=4-CN—C6H4**; R2=4-OCF2CHF2—C6H4]	92.80	–	9
N#Cc1ccc(C2=C(O)C(=Cc3ccc(OC(F)F)cc3)OC2=O)cc1 (mixture of isomers) [R=H; R1=4-CN—C6H4**; R2=4-OCHF2—C6H4]	48.40	–	9
O=C1OC(=Cc2ccc(Cl)cc2Cl)C(O)=C1c1ccc(Cl)cc1 (mixture of isomers) [R=H; R1=4-Cl—C6H4**; R2=2,4-diCl—C6H4]	91.40	–	9
O=C1OC(=Cc2ccc(Cl)c(Cl)c2)C(O)=C1c1ccc(Cl)cc1 (mixture of isomers) [R=H; R1=4-Cl—C6H4**; R2=3,4-diCl—C6H4]	58.0	–	9
O=C1OC(=Cc2ccc(C(F)(F)F)cc2)C(O)=C1c1ccc(F)cc1 (mixture of isomers) [R=H; R1=4-F—C6H4**; R2=4-CF3—C6H4]	25.60	–	9
N#Cc1ccc(C=C2OC(=O)C(c3ccc(F)cc3)=C2O)cc1 (mixture of isomers) [R=H; R1=4-F—C6H4**; R2=4-CN—C6H4]	14.70	–	9
O=C1OC(=Cc2ccc(Cl)cc2)C(O)=C1c1ccc(F)cc1 (mixture of isomers) [R=H; R1=4-F—C6H4**; R2=4-Cl—C6H4]	0.00	–	9
O=C1OC(=Cc2ccc(F)cc2)C(O)=C1c1ccc(F)cc1 (mixture of isomers) [R=H; R1=4-F—C6H4**; R2=4-F—C6H4]	0.00	–	9
O=C1OC(=Cc2ccc(OC(F)(F)F)cc2)C(O)=C1c1ccc(F)cc1 (mixture of isomers) [R=H; R1=4-F—C6H4**; R2=4-OCF3—C6H4]	51.60	–	9
O=C1O/C(=C\c2cc(C(F)(F)F)ccc2Cl)C(O)=C1c1ccc(-c2ccccc2)cc1 [R=H; R1=4-biphenyl; R2=2-Cl—5-CF3—C6H4]	38.40	–	–
